Results from patent US4001315A, “Prostaglandin derivatives” (American Home Products Corporation, priority 1975, dated 1977).

What was measured:
[1] = Hypotension in the anesthetized dog by the intravenous route; format: in vivo
Procedure: In the use of the compounds of the invention to produce hypotensive effects in warm-blooded animals, administration by the injectable route is preferred, preferably the intravenous route.
Thus in the anesthetized dog by the intravenous route the dose to produce hypotension is from about 1 mg/kg. to about 200 mg/kg. and preferably from about 10 mg/kg. to about 100 mg/kg. Using this procedure the following results were obtained.

[2] = system: bronchoconstricting effects of a standard dose of acetylcholine; test: Bronchodilation by aerosol inhalation in the guinea pig (method of Rosenthale et al.); format: in vivo; design: dose or concentration left out as unconfirmed
Description: In using the compounds of the invention to produce bronchodilating effects in warm-blooded animals, they may be administered in a variety of dosage forms: oral, injectable, and aerosol inhalation. Aerosol inhalation is a preferred method because of its rapid onset of action, great potency, and specificity of action. The particular dosage to obtain the bronchodilating effect will vary with the particular compound employed, the particular animal involved, and the degree of bronchodilation desired. […] The bronchodilation produced upon aerosol inhalation can be observed by the method of Rosenthale et al., J. Pharmacol. Exp. Ther., 178, 541 (1971). Using this procedure the following result was obtained.

Row | SMILES | Δb.p. ([1]; Dose 100 mg/kg.) | Percent Inhibition of the bronchoconstricting effects of a standard dose of acetylcholine [2] | Δb.p. ([1]; Dose 10 mg/kg.)
1 | CCCCC[C@H](O)/C=C/[C@H]1CC[C@](C)(O)[C@@H]1C/C=C\CCCC(=O)O [7-(5α-Hydroxy-2β-[(3S)-3-Hydroxy-Trans-1-Octenyl]-5β-Methyl-1α-Cyclopentyl)-Cis-5-Heptenoic Acid] | -23 mm. Hg |  | 
2 | C#CC(O)(/C=C/[C@H]1CCC(O)(C#C)[C@@H]1C/C=C\CCCC(=O)O)CCCCC (stereo partly drawn) [7-[(5RS)-5-Ethynyl-2β-((3RS)-3-Ethynyl-3-Hydroxy-Trans-1-Octenyl)-5-Hydroxy-1α-Cyclopentyl]-Cis-5-Heptenoic Acid] | -26 mm. Hg | 48% | 
3 | CCCCC[C@H](O)/C=C/[C@H]1CC[C@@](C)(O)[C@@H]1C/C=C\CCCC(=O)O [7-(5β-Hydroxy-2β-[(3S)-3-Hydroxy-Trans-1-Octenyl]-5α-Methyl-1α-Cyclopentyl)-Cis-5-Heptenoic Acid] | -19 mm. Hg |  | 
4 | C#CC1(O)CC[C@H](/C=C/[C@@H](O)CCCCC)[C@H]1C/C=C\CCCC(=O)O (stereo partly drawn) [7-[(5RS)-5-Ethynyl-5-Hydroxy-2β-((3S)-3-Hydroxy-Trans-1-Octenyl)-1α-Cyclopentyl]-Cis-5-Heptenoic Acid] |  |  | -40 mm. Hg
